Measurements from publication doi:10.1101/2024.08.19.608619, “Discovery of potent SARS-CoV-2 nsp3 macrodomain inhibitors uncovers lack of translation to cellular antiviral response” (bioRxiv, 2024).
Values after ≈ are worked out from the molar mass of the structure shown.

tested on: SARS-CoV-2, isolate USA-WA1/2020; assay: microbe, parasite or virus in culture; format: cell-based; settings: HeLa-ACE2 SARS-CoV-2 antiviral effect without P-gp inhibitor; maximum measured response of dose series

Row | Structure (SMILES) | perc_max_measured [%]
1 | CC(C)[C@@H](Nc1ncnc2[nH]c(-c3cnn(C)c3C#N)cc12)c1ccc2c(c1)S(=O)(=O)CCC2 (single isomer, unassigned) [ASAP-0011147] | 114.163

same assay, conditions: HeLa-ACE2 SARS-CoV-2 antiviral effect without P-gp inhibitor; minimum measured response of dose series

Row | Structure (SMILES) | perc_min_measured [%]
2 | CC(C)[C@@H](Nc1ncnc2[nH]c(-c3cnn(C)c3C#N)cc12)c1ccc2c(c1)S(=O)(=O)CCC2 (single isomer, unassigned) [ASAP-0011147] | 4.545

same assay, conditions: HeLa-ACE2 SARS-CoV-2 antiviral effect without P-gp inhibitor; read-out: ec50

Row | Structure (SMILES) | EC50 [µM]
3 | CC(C)[C@@H](Nc1ncnc2[nH]c(-c3cnn(C)c3C#N)cc12)c1ccc2c(c1)S(=O)(=O)CCC2 (single isomer, unassigned) [ASAP-0011147] | 3.51

same assay, conditions: HeLa-ACE2 SARS-CoV-2 antiviral effect without P-gp inhibitor; read-out: ec90

Row | Structure (SMILES) | EC90 [µM]
4 | CC(C)[C@@H](Nc1ncnc2[nH]c(-c3cnn(C)c3C#N)cc12)c1ccc2c(c1)S(=O)(=O)CCC2 (single isomer, unassigned) [ASAP-0011147] | 13.2

tested on: not listed separately; assay: LogD; settings: pH 7.4; In vitro LogD

Row | Structure (SMILES) | logd
5 | CC(C)[C@@H](Nc1ncnc2[nH]c(-c3cnn(C)c3C#N)cc12)c1ccc2c(c1)S(=O)(=O)CCC2 (single isomer, unassigned) [ASAP-0011147] | 3.7

tested on: not listed separately; assay: in vitro; settings: human, hela-ace2 cells, 50.0

Row | Structure (SMILES) | CC50 at 24 h [µM]
6 | CC(C)[C@@H](Nc1ncnc2[nH]c(-c3cnn(C)c3C#N)cc12)c1ccc2c(c1)S(=O)(=O)CCC2 (single isomer, unassigned) [ASAP-0011147] | > 20

tested on: SARS-CoV-2; assay: Antiviral effect in iPSC-derived pneumocyte system; format: cell-based; settings: iPSC pneumocytes SARS-CoV-2 antiviral effect

Row | Structure (SMILES) | EC50 [µM] | EC90 [µM]
7 | CC(C)[C@@H](Nc1ncnc2[nH]c(-c3cnn(C)c3C#N)cc12)c1ccc2c(c1)S(=O)(=O)CCC2 (single isomer, unassigned) [ASAP-0011147] | 0.411 | 13

same assay, conditions: iPSC pneumocytes SARS-CoV-2 antiviral effect; maximum measured response of dose series

Row | Structure (SMILES) | perc_max_measured [%]
8 | CC(C)[C@@H](Nc1ncnc2[nH]c(-c3cnn(C)c3C#N)cc12)c1ccc2c(c1)S(=O)(=O)CCC2 (single isomer, unassigned) [ASAP-0011147] | 75.192

same assay, conditions: iPSC pneumocytes SARS-CoV-2 antiviral effect; minimum measured response of dose series

Row | Structure (SMILES) | perc_min_measured [%]
9 | CC(C)[C@@H](Nc1ncnc2[nH]c(-c3cnn(C)c3C#N)cc12)c1ccc2c(c1)S(=O)(=O)CCC2 (single isomer, unassigned) [ASAP-0011147] | 0.111

tested on: not listed separately; assay: Hepatic microsomal stability, HLM; format: in vitro ADME, human; settings: In vitro human liver microsomal stability

Row | Structure (SMILES) | clint [µL/min/mg] | perc_remaining [%] | t_half [min]
10 | CC(C)[C@@H](Nc1ncnc2[nH]c(-c3cnn(C)c3C#N)cc12)c1ccc2c(c1)S(=O)(=O)CCC2 (single isomer, unassigned) [ASAP-0011147] | 516.0 | 0.0 | 3.2

same assay, conditions: In vitro human liver microsomal stability; no cofactor

Row | Structure (SMILES) | perc_remaining_no_cofactor [%]
11 | CC(C)[C@@H](Nc1ncnc2[nH]c(-c3cnn(C)c3C#N)cc12)c1ccc2c(c1)S(=O)(=O)CCC2 (single isomer, unassigned) [ASAP-0011147] | 101.0

tested on: not listed separately; assay: Hepatic microsomal stability, MLM; format: in vitro ADME; settings: In vitro mouse liver microsomal stability

Row | Structure (SMILES) | clint [µL/min/mg] | perc_remaining [%] | t_half [min]
12 | CC(C)[C@@H](Nc1ncnc2[nH]c(-c3cnn(C)c3C#N)cc12)c1ccc2c(c1)S(=O)(=O)CCC2 (single isomer, unassigned) [ASAP-0011147] | 709.0 | 0.0 | 2.4

same assay, conditions: In vitro mouse liver microsomal stability, no cofactor

Row | Structure (SMILES) | perc_remaining_no_cofactor [%]
13 | CC(C)[C@@H](Nc1ncnc2[nH]c(-c3cnn(C)c3C#N)cc12)c1ccc2c(c1)S(=O)(=O)CCC2 (single isomer, unassigned) [ASAP-0011147] | 106.0

tested on: not listed separately; assay: Permeability Papp (AB) MDR1/MDCKII; settings: In vitro MDR1-MDCKII permeability, A to B, mean

Row | Structure (SMILES) | papp_a_to_b_mean [×10⁻⁶ cm/s]
14 | CC(C)[C@@H](Nc1ncnc2[nH]c(-c3cnn(C)c3C#N)cc12)c1ccc2c(c1)S(=O)(=O)CCC2 (single isomer, unassigned) [ASAP-0011147] | 1.82

same assay, conditions: In vitro MDR1-MDCKII permeability, A to B, no inhibitor

Row | Structure (SMILES) | papp_a_to_b_mean [×10⁻⁶ cm/s]
15 | CC(C)[C@@H](Nc1ncnc2[nH]c(-c3cnn(C)c3C#N)cc12)c1ccc2c(c1)S(=O)(=O)CCC2 (single isomer, unassigned) [ASAP-0011147] | 0.087

same assay, conditions: In vitro MDR1-MDCKII permeability, B to A, no inhibitor

Row | Structure (SMILES) | papp_b_to_a_mean [×10⁻⁶ cm/s]
16 | CC(C)[C@@H](Nc1ncnc2[nH]c(-c3cnn(C)c3C#N)cc12)c1ccc2c(c1)S(=O)(=O)CCC2 (single isomer, unassigned) [ASAP-0011147] | 7.5

same assay, conditions: In vitro MDR1-MDCKII permeability, no inhibitor

Row | Structure (SMILES) | efflux_ratio
17 | CC(C)[C@@H](Nc1ncnc2[nH]c(-c3cnn(C)c3C#N)cc12)c1ccc2c(c1)S(=O)(=O)CCC2 (single isomer, unassigned) [ASAP-0011147] | 85.7

same assay, conditions: In vitro MDR1-MDCKII permeability, recovery A to B, mean

Row | Structure (SMILES) | perc_recovery_a_to_b_mean [%]
18 | CC(C)[C@@H](Nc1ncnc2[nH]c(-c3cnn(C)c3C#N)cc12)c1ccc2c(c1)S(=O)(=O)CCC2 (single isomer, unassigned) [ASAP-0011147] | 54.6

same assay, conditions: In vitro MDR1-MDCKII permeability, recovery A to B, no inhibitor

Row | Structure (SMILES) | perc_recovery_a_to_b_mean [%]
19 | CC(C)[C@@H](Nc1ncnc2[nH]c(-c3cnn(C)c3C#N)cc12)c1ccc2c(c1)S(=O)(=O)CCC2 (single isomer, unassigned) [ASAP-0011147] | 82.5

same assay, conditions: In vitro MDR1-MDCKII permeability, recovery B to A, no inhibitor

Row | Structure (SMILES) | perc_recovery_b_to_a_mean [%]
20 | CC(C)[C@@H](Nc1ncnc2[nH]c(-c3cnn(C)c3C#N)cc12)c1ccc2c(c1)S(=O)(=O)CCC2 (single isomer, unassigned) [ASAP-0011147] | 96.5

same assay, conditions: MDR1-MDCKII, recovery A to B, with inhibitor Verapamil

Row | Structure (SMILES) | perc_recovery_a_to_b_inhibitor_mean [%]
21 | CC(C)[C@@H](Nc1ncnc2[nH]c(-c3cnn(C)c3C#N)cc12)c1ccc2c(c1)S(=O)(=O)CCC2 (single isomer, unassigned) [ASAP-0011147] | 63.2

same assay, conditions: MDR1-MDCKII, recovery B to A, with inhibitor Verapamil

Row | Structure (SMILES) | perc_recovery_b_to_a_inhibitor_mean [%]
22 | CC(C)[C@@H](Nc1ncnc2[nH]c(-c3cnn(C)c3C#N)cc12)c1ccc2c(c1)S(=O)(=O)CCC2 (single isomer, unassigned) [ASAP-0011147] | 72.3

tested on: iPSC pneumocytes; assay: iPSC pneumocytes cytotoxicity; format: cell-based; settings: not given
Text: Supplement media-1.zip/Cytotoxicity.csv, table | column: cc10; cc50; perc_min_measured; perc_max_measured

Row | Structure (SMILES) | CC50 [µM] | cc10 [µM]
23 | CC(C)[C@@H](Nc1ncnc2[nH]c(-c3cnn(C)c3C#N)cc12)c1ccc2c(c1)S(=O)(=O)CCC2 (single isomer, unassigned) [ASAP-0011147] | > 50 | > 50.0

same assay, conditions: highest measured response of the dose series

Row | Structure (SMILES) | perc_max_measured [%]
24 | CC(C)[C@@H](Nc1ncnc2[nH]c(-c3cnn(C)c3C#N)cc12)c1ccc2c(c1)S(=O)(=O)CCC2 (single isomer, unassigned) [ASAP-0011147] | 111.987

same assay, conditions: lowest measured response of the dose series

Row | Structure (SMILES) | perc_min_measured [%]
25 | CC(C)[C@@H](Nc1ncnc2[nH]c(-c3cnn(C)c3C#N)cc12)c1ccc2c(c1)S(=O)(=O)CCC2 (single isomer, unassigned) [ASAP-0011147] | 95.623

tested on: HeLa-ACE2 cells; assay: not given; settings: protocol HeLa-ACE2 cytotoxicity

Row | Structure (SMILES) | CC50 [µM] | cc10 [µM]
26 | CC(C)[C@@H](Nc1ncnc2[nH]c(-c3cnn(C)c3C#N)cc12)c1ccc2c(c1)S(=O)(=O)CCC2 (single isomer, unassigned) [ASAP-0011147] | > 20 | > 20.0

same assay, conditions: protocol HeLa-ACE2 cytotoxicity; highest measured response of the dose series

Row | Structure (SMILES) | perc_max_measured [%]
27 | CC(C)[C@@H](Nc1ncnc2[nH]c(-c3cnn(C)c3C#N)cc12)c1ccc2c(c1)S(=O)(=O)CCC2 (single isomer, unassigned) [ASAP-0011147] | 92.283

same assay, conditions: protocol HeLa-ACE2 cytotoxicity; lowest measured response of the dose series

Row | Structure (SMILES) | perc_min_measured [%]
28 | CC(C)[C@@H](Nc1ncnc2[nH]c(-c3cnn(C)c3C#N)cc12)c1ccc2c(c1)S(=O)(=O)CCC2 (single isomer, unassigned) [ASAP-0011147] | 75.829

tested on: not listed separately; assay: in vitro; parameters: Cytotoxicity in iPSC-derived pneumocytes, CC50; settings: human, ipsc-derived pneumocytes; ASAP-0008327-001=ASAP-0011147-001; read-out: 50.0
Text: Finally, we consider the hypothesis that interferon response triggers ADP-ribosylation, thus profiling the compounds in enhanced and physiologically relevant interferon environments could reveal detectable antiviral effects. […] Furthermore, HeLa-ACE2 cells, and all cancerous cell lines, display defective innate immune response ([1]). As such, we also assess our compound in a primary-like iPSC-derived pneumocyte system (Figure 7C), showing likewise a lack of antiviral activity in this physiologically relevant innate immunity system.

Row | Structure (SMILES) | CC50 [µM]
29 | CC(C)[C@@H](Nc1ncnc2[nH]c(-c3cnn(C)c3C#N)cc12)c1ccc2c(c1)S(=O)(=O)CCC2 (single isomer, unassigned) [ASAP-0011147] | > 50

tested on: not listed separately; assay: In vitro kinetic solubility; settings: In vitro kinetic solubility, ph 7.4

Row | Structure (SMILES) | solubility_mean [µM]
30 | CC(C)[C@@H](Nc1ncnc2[nH]c(-c3cnn(C)c3C#N)cc12)c1ccc2c(c1)S(=O)(=O)CCC2 (single isomer, unassigned) [ASAP-0011147] | 26 (≈ 12.4 µg/mL)
